Assay results reported in US11440939B2, “Anticancer peptides” (IDP DISCOVERY PHARMA, S.L., priority 2017, dated 2022).
Numbered stars: 1 amine (or outer) side, 2 acyl side, 3 side chain; on linkers, the order of the positions; unused ones are H or OH. Bridge positions count the residues as written; N and C are the ends. Square brackets hold non-standard residues; d marks the D form. Peptide text beside a SMILES is read from it. ξ: configuration not given here. ξαMeNle(6-ylidene) = CC(CCCC=[*:3])(N[*:1])C(=O)[*:2]; X1 = CC(CCCCCCC=[*:3])(N[*:1])C(=O)[*:2]; R8 = C=CCCCCCC[C@@](C)(N)C(=O)O; S5 = C=CCCC[C@](C)(N)C(=O)O

How the values were obtained:
NCI-H524 = type: cell-based; conditions: 72 h
Protocol: NCI-H524, lung (small cell lung cancer, SCLC), ATCC-CRL-5831;
(§1) Cell line MCF-7 was cultured in incubator under CO2 (6%) at 37° C. in DMEM high glucose (Dulbecco's Modified Eagle Solution, Gibco-BRL 31966-21) medium with 10% fetal bovine serum inactivated (FBS) (Gibco-BRL 10106-169). Cell lines HL-60, NCI-H524, NCI-H526, NCI-H69, NCI-H82, NCI-H187 and H5B were cultured in an incubator at 37° C. in RPMI-1640 (Sigma R8758) medium with 10% of fetal bovine serum inactivated (FBS) and 2 mM glutamine (Sigma G7513). Cell line NCI-H510A was cultured in incubator in F12K medium with 10% of fetal bovine serum inactivated (FBS). Cell line GBM-18 and GBM-27 were cultured in incubator under CO2 (6%) at 37° C. in complete medium (Neurobasal+B27+Glutamax+Growth factors).
During the amplification step and the assays, adherent cells were rinsed with DPBS (Dulbecco's Phosphate Buffered Saline, Sigma D1283) three times and afterward treated for 5 minutes with trypsin ([…]) (Gibco-BRL, 15400054) in solution of DPBS at 37° C., and, once detached, transferred in the culturing medium. No-adherent cells were centrifuged and transferred in the culturing medium. Cells were counted in a Neubauer chamber after labelling with Tripan-Blue. […]
(§2) Cells were incubated during 72 h in incubator under CO2 atmosphere at 37° C. Cell viability was measured by means of MTT (3-(4,5-dimethylthiazol-2-yl)-2,5-diphenyltetrazolium bromide) assay, Alamar Blue® (Biosource DAL1100) and Hexosaminidase activity test, consecutively, following manufacturer instructions.
MTT: 1. […] Absorbance at 570 nm was finally measured.
Alamar Blue: 10 μl Alamar Blue solution was added to each well and the plates were incubated for […] in the incubator. Fluorescence ratio at 535/590 (excitation/emission) was measured in Cytofluor (Millipore) fluorimeter. Blank control was determined by lysis of untreated cells with con 2% of Triton X100, right before adding Alamar Blue solution. […]

NCI-H526 = conditions: 72 h
Protocol: NCI-H526, epithelial (small cell lung cancer, SCLC), ATCC-CRL-5811;
During the amplification step and the assays, adherent cells were rinsed with DPBS (Dulbecco's Phosphate Buffered Saline, Sigma D1283) three times and afterward treated for 5 minutes with trypsin ([0.5 g/ml]/EDTA [0.2 g/ml]) (Gibco-BRL, 15400054) in solution of DPBS at 37° C., and, once detached, transferred in the culturing medium. No-adherent cells were centrifuged and transferred in the culturing medium. Cells were counted in a Neubauer chamber after labelling with Tripan-Blue. […]
MTT: 1. […] Absorbance at 570 nm was finally measured. […]

cancer cell lines = assay: Inhibition of cancer cell proliferation, general statements; type: cell-based
Protocol: (§3) MCF-7, NCI-H187, NCI-H69, NCI-H526 and H5B cells were seeded at a density of 5000 cells/well; NCI-H524 and NCI-H82 were seeded at a density of 2500 cells/well; HL-60 and NCI-H510A at 10000 cells/well in 100 μl of medium in 96 well plates. After 24 h, the compounds to be tested were added to calculate the dose/response curve at the starting concentration of 100 μM with serial dilutions (1:1). Controls were the untreated cells. Each experiment was performed in triplicate.
as §2
(§4) Data analysis was performed calculating the percentage of cell viability normalized vs. the values of negative control, which was considered equal to 100%. The dose/response curve was fitted through the sigmoidal equation dose-response (variable slope) and the EC50 values were calculated as follow: Y=Bottom+(Top−Bottom)/(1+10^{[(Log EC50−X)*HillSlope]},

NCI-H510A = type: cell-based; conditions: 72 h
Protocol: (§5) NCI-510A, epithelial (small cell lung cancer, SCLC), ATCC-HBT-124; and Hepatocytes (normal liver), from a donor was provided by Foundation DTI-Donation & Transplantation Institute from surgical wastes and from organs not suitable for transplantation
as §1
(§6) During the amplification step and the assays, adherent cells were rinsed with DPBS (Dulbecco's Phosphate Buffered Saline, Sigma D1283) three times and afterward treated for 5 minutes with trypsin ([…]) (Gibco-BRL, 15400054) in solution of DPBS at 37° C., and, once detached, transferred in the culturing medium. No-adherent cells were centrifuged and transferred in the culturing medium. Cells were counted in a Neubauer chamber after labelling with Tripan-Blue.
as §3, §2
(§7) MTT: 1. Stock solution of MTT (475989 Calbiochem) was 5 mg/ml in PBS 1×. As negative control (experiment noise) 3 wells were treated with 20 μl/well of a solution of SDS 10% in H2O. The same control was used for Alamar Blue/Hexosaminidase. 10 μl/well of MTT solution were added and the plate was incubated for 3-4 hr. The medium was discarded and 100 μl of extracting buffer (PBS 1×, 15% SDS, 50% […] N,N-Dimethylformamide, pH 4,7) were added to each well. Plates were incubated for 16 h at room temperature under orbital shaking. Absorbance at 570 nm was finally measured.
(§8) Alamar Blue: 10 μl Alamar Blue solution was added to each well and the plates were incubated for […] in the incubator. Fluorescence ratio at 535/590 (excitation/emission) was measured in Cytofluor (Millipore) fluorimeter. Blank control was determined by lysis of untreated cells with con 2% of Triton X100, right before adding Alamar Blue solution.
(§9) Hexosaminidase activity test: after Alamar Blue lecture, medium was discarded and plates were rinsed once with PBS. 60 μl hexosaminidase substrate (p-nitrophenol-N-acetyl-beta-D-glucosamide 7.5 mM [Sigma N-9376], sodium citrate 0.1 M, pH 5.0, 0.25% Triton X-100) was added to each well and the plates were incubated at 37° C. for 2-5 h, according to the cell type (hexosaminidase activity changes according to the cell type). […] Blank control was the same as described before.
as §4

NCI-H187 = type: cell-based; conditions: 72 h
Protocol: NCI-H187, epithelial (small cell lung cancer, SCLC), ATCC-CRL-5804;
as §1, §6, §3, §2, §7, §8, §9, §4

NCI-H82 = type: cell-based; conditions: 72 h
Protocol: NCI-H82, epithelial (small cell lung cancer, SCLC), ATCC-CRL-5811;
as §1, §6, §3, §2, §7, §8, §9, §4

Human hepatocytes = assay: Hepatotoxicity assay, trypan blue exclusion, 24 h; type: cell-based; conditions: human hepatocytes, 0.5% SDS
Excerpt: as §5
Human liver from a donor was subjected to hepatocyte isolation by using a two-step tissue microperfusion technique taking maximum care to avoid anoxia before cannulation, since hepatocytes are cells highly sensitive to oxygen levels. An initial anoxic state could result in a low viability of the cells, and will later affect their metabolic capacity in the culture. Briefly, liver tissue was cannulated by using the accessible vessels with a 1 mm-diameter needle. A balanced salt solution was injected to clean the organ by using a peristaltic pump adjusted to a flow rate of 18-20 ml/min. After washing, a solution containing collagenase was added for liver disintegration. The cell suspension obtained using this process was filtered and centrifuged and, after a couple of washings to remove collagenase, cells were re-suspended in culture medium Ham's F-12/William (1:1) medium supplemented with 2 mM glutamine, […] sodium selenite, 2% newborn calf serum, 50 mU/ml penicillin, 50 μg/ml streptomycin, 0.1% bovine serum albumin, 1.68 mM NAME, 26 mM sodium bicarbonate, 25 μg/ml transferrin, 65.5 μM ethanolamine, 7.2 μM linoleic acid, 17.5 mM glucose, 6.14 mM ascorbic acid and 10 nM insulin.
After resuspension, a cell aliquot was removed and viability was determined by cell counting using the trypan blue exclusion method. Trypan blue uptake is the result of cell membrane alteration and in consequence of cell death. Thus, to quantify cell viability, 0.4% trypan blue in saline was added to the cells and these were immediately loaded in a Neubauer chamber. Viable cells were counted in 5 different fields under the optical microscope as non-blue cells. % Viability=Number of non-blue cells×100/Number of total cells Viability and Hepatoxicity Assay
Human hepatocytes isolated and re-suspended as described before were seeded at 100,000 viable cells/well on 96 collagen-coated plates in order to assess compound's cytotoxicity. After 1 hour in culture, medium was renewed to eliminate cell debris. Cultured human hepatocytes were allowed to stay in culture for 24 hours prior performing the experiments. After 24 h, the compounds to be tested were added to calculate the dose/response curve at the starting concentration of 400 μM with serial dilutions. Each experiment was performed in triplicate. Cells were incubated during 24 h in incubator under CO2 atmosphere at 37° C.
The viability was determined by cell counting using the trypan blue exclusion method. % Viability=Number of non-blue cells×100/Number of total cells Statistics

SMILES	EC50 (NCI-H524)	EC50 (NCI-H526)	EC50 (NCI-H510A)	EC50 (NCI-H187)	EC50 (NCI-H82)	inhibition of cancer cell proliferation (in words) (cancer cell lines)	% Viability (Human hepatocytes)
CC(C)C[C@@H]1NC(=O)[C@H](CC(N)=O)NC(=O)[C@H](C(C)C)NC(=O)C(C)(NC(=O)[C@H](CCCCN)NC(=O)[C@@H](NC(=O)[C@H](CCCNC(=N)N)NC(=O)[C@H](CC(N)=O)NC(=O)[C@@H](N)CCCNC(=N)N)C(C)C)CCCC=CCCCC(C)(C(=O)N[C@@H](Cc2ccccc2)C(=O)N[C@@H](C)C(=O)N[C@H](C(=O)N[C@@H](CC(C)C)C(=O)N[C@@H](CCCNC(=N)N)C(=O)N[C@@H](CCC(=O)O)C(=O)N[C@@H](Cc2c[nH]cn2)C(N)=O)[C@@H](C)O)NC1=O (stereo partly drawn) [H02] (H-RNRVK[ξαMeNle(6-ylidene)]VNL[ξαMeNle(6-ylidene)]FATLREH-NH2; staple 6-10; N-terminus and C-terminus assumed)	~15 µM	~10 µM					
CC(C)C[C@H](NC(=O)[C@H](CCCCN)NC(=O)[C@@H](NC(=O)[C@H](CCCNC(=N)N)NC(=O)[C@H](CC(N)=O)NC(=O)[C@@H](N)CCCNC(=N)N)C(C)C)C(=O)N[C@H](C(=O)N[C@@H](CC(N)=O)C(=O)N[C@@H](CC(C)C)C(=O)N[C@]1(C)CCCCCCC=CCCC[C@@](C)(C(N)=O)NC(=O)[C@H](CCC(=O)O)NC(=O)[C@H](CCCNC(=N)N)NC(=O)[C@H](CC(C)C)NC(=O)[C@H]([C@@H](C)O)NC(=O)[C@H](C)NC(=O)[C@H](Cc2ccccc2)NC1=O)C(C)C [H04] (H-RNRVKLVNL[R8]FATLRE[S5]-NH2; staple 10-17; N-terminus and C-terminus assumed)	~9 µM	~11 µM					
CC(C)C[C@H](NC(=O)[C@H](CCCCN)NC(=O)[C@@H](NC(=O)[C@@H](N)CCCNC(=N)N)C(C)C)C(=O)N[C@H](C(=O)N[C@@H](CCC(N)=O)C(=O)N[C@@H](CC(C)C)C(=O)NC1(C)CCCCCCC=CCCCC(C)(C(=O)N[C@H](C(=O)N2CCC[C@H]2C(N)=O)C(C)C)NC(=O)[C@H](CCC(=O)O)NC(=O)[C@H](CCCNC(=N)N)NC(=O)[C@H](CC(C)C)NC(=O)[C@H]([C@@H](C)O)NC(=O)[C@H](C)NC(=O)[C@H](Cc2ccccc2)NC1=O)C(C)C (stereo partly drawn) [IDP-H14-Q6] (H-RVKLVQL[X1]FATLRE[ξαMeNle(6-ylidene)]VP-NH2; staple 8-15; N-terminus and C-terminus assumed)			~12.5 µM	~7.5 µM	~7.5 µM	active	
CCCCCCCCCCCCOS(=O)(=O)[O-].[Na+] [SDS, reference compound]							13.6%

Second part, led by results:

EC50 (NCI-H524)	EC50 (NCI-H526)	EC50 (NCI-H510A)	EC50 (NCI-H187)	EC50 (NCI-H82)	SMILES	inhibition of cancer cell proliferation (in words) (cancer cell lines)	% Viability (Human hepatocytes)
		~7.5 µM	~7.5 µM	~7.5 µM	CC(C)C[C@H](NC(=O)[C@H](CCCCN)NC(=O)[C@@H](NC(=O)[C@@H](N)CCCNC(=N)N)C(C)C)C(=O)N[C@H](C(=O)N[C@@H](CC(N)=O)C(=O)N[C@@H](CC(C)C)C(=O)NC1(C)CCCCCCC=CCCCC(C)(C(=O)N[C@H](C(=O)N2CCC[C@H]2C(N)=O)C(C)C)NC(=O)[C@H](C)NC(=O)[C@H](CCCNC(=N)N)NC(=O)[C@H](CC(C)C)NC(=O)[C@H]([C@@H](C)O)NC(=O)[C@H](C)NC(=O)[C@H](Cc2ccccc2)NC1=O)C(C)C (stereo partly drawn) [IDP-H14-A12] (H-RVKLVNL[X1]FATLRA[ξαMeNle(6-ylidene)]VP-NH2; staple 8-15; N-terminus and C-terminus assumed)	active	
		~7.5 µM	~7.5 µM	~7.5 µM	CC(C)C[C@@H]1NC(=O)[C@H](C)NC(=O)[C@H](C)NC(=O)[C@H](Cc2ccccc2)NC(=O)[C@](C)(NC(=O)[C@H](CC(C)C)NC(=O)[C@H](CC(N)=O)NC(=O)[C@@H](NC(=O)[C@H](CC(C)C)NC(=O)[C@H](CCCCN)NC(=O)[C@@H](NC(=O)[C@@H](N)CCCNC(=N)N)C(C)C)C(C)C)CCCCCCC=CCCC[C@@](C)(C(=O)N[C@H](C(=O)N2CCC[C@H]2C(N)=O)C(C)C)NC(=O)[C@H](CCC(=O)O)NC(=O)[C@H](CCCNC(=N)N)NC1=O [IDP-H14-A09] (H-RVKLVNL[R8]FAALRE[S5]VP-NH2; staple 8-15; N-terminus assumed)	active	
		~7.5 µM	~7.5 µM	~7.5 µM	CC(C)C[C@H](NC(=O)[C@H](CCCCN)NC(=O)[C@@H](NC(=O)[C@@H](N)CCCNC(=N)N)C(C)C)C(=O)N[C@H](C(=O)N[C@@H](CC(N)=O)C(=O)N[C@@H](CC(C)C)C(=O)NC1(C)CCCCCCC=CCCCC(C)(C(=O)N[C@H](C(=O)N2CCC[C@H]2C(N)=O)C(C)C)NC(=O)[C@H](Cc2ccccc2)NC(=O)[C@H](CCCNC(=N)N)NC(=O)[C@H](CC(C)C)NC(=O)[C@H]([C@@H](C)O)NC(=O)[C@H](C)NC(=O)[C@H](Cc2ccccc2)NC1=O)C(C)C (stereo partly drawn) [IDP-H14-F12] (H-RVKLVNL[X1]FATLRF[ξαMeNle(6-ylidene)]VP-NH2; staple 8-15; N-terminus and C-terminus assumed)	active	
